Laboratory results published in PubChem BioAssay (NCI).
Values joined by “and” are separate entries in the source; they are usually repeats but may differ in a detail not shown here. Equal values may be shown once.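 48-hour exposure; five concentrations; linearly interpolated endpoints. Here, GI50 denotes the concentration required for 50% inhibition of growth. The concentration for full growth arrest is given as TGI.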 Peptide text beside a SMILES is read from it. * marks the point of attachment. Cbz = O=C(OCc1ccccc1)*

What was measured:
Test in all cases: DTP human tumour cell line panel, 48 h
[1] = system: MDA-MB-435
[2] = system: HOP-62 NSCLC
[3] = system: M14 melanoma
[4] = system: LOX IMVI melanoma
[5] = system: NCI-H226 lung
[6] = system: NCI-H23 lung
[7] = system: OVCAR-3 ovarian
[8] = system: K-562 leukemia

Row | Compound | TGI [1] | TGI [2] | TGI [3] | TGI [4] | TGI [5] [µM] | TGI [6] | TGI [7] | TGI [8] [µM] | GI50 [2] | GI50 [7]
1 | CNc1cc(Cl)ccc1C(=O)N1CCC[C@H]1CO | > 100 µM | > 100 µM | > 100 µM | > 100 µM | > 100 | > 100 µM |  |  |  | 
2 | CCOC1Oc2ccccc2-c2nc(N)ncc21 (stereo not given) | 66.3 µM |  | > 100 µM | > 100 µM | > 100 | > 100 µM | > 100 µM |  |  | 
3 | O=c1[nH]nc(Cc2ccc(Cl)cc2)n1CCO | > 100 µM |  | > 100 µM | > 100 µM | > 100 | > 100 µM | > 100 µM | > 100 |  | 
4 | N#CC(C#N)[C@@H]1CCC=C(Sc2ccccc2)[C@H]1Sc1ccccc1 | 4.53 µM | 15.6 µM | 4.95 µM |  | 4.01 | 20.9 µM | 12.8 µM | > 100 |  | 
5 | O=[N+]([O-])c1ccc2nc(/C=C(\O)c3ccccc3)c(NC34CC5CC(CC(C5)C3)C4)nc2c1 | > 10 µM | > 10 µM | > 10 µM | > 10 µM | > 10 | > 10 µM | > 10 µM |  |  | 
6 | O=C(Cn1c2c(c3ccccc31)CCCC2)N1CCOCC1 | > 100 µM | > 100 µM | > 100 µM | > 100 µM |  | > 100 µM | > 100 µM | > 100 |  | 
7 | Nc1nc(Cl)cc(NCC2(CO)CC=CC2)n1 | > 100 µM | > 100 µM |  | > 100 µM | > 100 |  | > 100 µM | > 100 |  | 
8 | COc1cccc(C=C(C#N)C#N)c1OC |  | > 100 µM | > 100 µM |  | > 100 | > 100 µM | > 100 µM | > 100 |  | 
9 | CN1CCN(c2ccc3nc(-c4ccc5nc(CCCc6ccc(N(CCCl)CCCl)cc6)[nH]c5c4)[nH]c3c2)CC1 | > 100 µM | > 100 µM | > 100 µM | > 100 µM | > 100 | > 100 µM |  | > 100 |  | 
10 | Oc1cc(F)cc2cccnc12 | > 100 µM | > 100 µM | 22.1 µM | 29.1 µM | > 100 | 18.2 µM |  | 1.15 |  | 
11 | CN1C(CC(O)c2ccccc2)CCCC1CC(O)(c1ccccc1)c1ccccc1 (stereo not given) |  | 27.6 µM | 34.9 µM | 41.5 µM | 38.5 | 35.8 µM | 31.3 µM | 94.8 |  | 
12 | O=C1c2ccccc2C(=O)c2c1sc1nc3ccccc3n21 | 4.37 µM |  | 3.15 µM |  | 21.2 | 3.74 µM | 9.34 µM | 5.09 |  | 
13 | CCC1=NC(N/N=C/c2ccco2)=N/C1=C\c1ccco1 | > 100 µM | > 100 µM | > 100 µM | > 100 µM | > 100 | > 100 µM |  | > 100 |  | 
14 | CCOC(=O)/C=C(\C(=O)OCC)n1cc(C)c(=O)n(Cc2cn(COCCOC(C)=O)nn2)c1=O | 28.2 µM | 38.7 µM |  | 35.8 µM |  | 29.8 µM | 27.6 µM | > 100 |  | 
15 | OCCCN=C1N=C(Cl)/C(=C\c2ccccc2)N1 | > 100 µM |  | > 100 µM | > 100 µM | > 100 | > 100 µM |  | > 100 |  | 
16 | O=C(/C=C/c1ccc(O)c(O)c1)O[C@H]1CCCC[C@@H]1OC(=O)/C=C/c1ccc(O)c(O)c1 | 27.1 µM | 41.1 µM | 77.9 µM | 17 µM |  | 33.7 µM | 26.7 µM | > 100 |  | 
17 | CC(=O)OC1OC(C2c3cccc(O)c3C(=O)c3c(O)cc(CO)cc32)C(O)C(O)C1O (stereo not given) | 11.6 µM and 14.3 µM | 11.6 µM and 18.5 µM | 24.4 µM and 24.8 µM | 9.75 µM and 9.49 µM |  | 11.3 µM and 13 µM | 22.4 µM and 12.1 µM | > 100 | 2.38 µM and 5.03 µM | 9.16 µM and 3.51 µM
18 | O=C1CCCc2cc3c(cc21)CC1(C3)Cc2cc3c(cc2C1)C(=O)CCC3 |  | > 63.2 µM | 11.8 µM | > 65.3 µM | 23.4 | 31.7 µM | 7.2 µM | > 42.2 |  | 
19 | O=C(c1ccccc1)N1CCC(Nc2cccnc2)O1 (stereo not given) | > 100 µM | > 100 µM | > 100 µM |  | > 100 | > 100 µM | > 100 µM | > 100 |  | 
20 | N#CCc1nc(-c2cc3ccc(O)cc3oc2=O)cs1 | > 100 µM | > 100 µM | > 100 µM | > 100 µM | > 100 |  |  | > 100 |  | 
21 | C/C(=N\NC(N)=S)C(CN1CCCCC1)C(C1=C(O)c2ccccc2OC1)c1ccccc1 (stereo not given) | > 100 µM | > 100 µM | > 100 µM | > 100 µM | > 100 | > 100 µM | > 100 µM |  |  | 
22 | CCOC(=O)CCC(NC(=O)CNC(=O)CNC(=O)C(CCC(=O)OCC)NC(=O)C(CCC(=O)OCC)NC(=O)C(CCC(=O)OCC)NC(=O)OCc1ccccc1)C(=O)NC(CCC(=O)OCC)C(=O)NC(CCC(=O)OCC)C(=O)OCC (stereo not given) (Cbz-E(OEt)E(OEt)E(OEt)GGE(OEt)E(OEt)E(OEt)-OEt; configuration not given here) | > 75 µM |  | > 75 µM | > 75 µM |  | > 75 µM |  |  |  | 
